These results are taken from patent publication US20250215029A1 (Recludix Pharma, Inc., priority 2022, published 2025).

Where two headings read alike, the source gives them in different places. Some results are limits rather than exact numbers.

For one assay, the target named is T1, pY705-STAT3 in PBMC (Homo sapiens, UniProt P40763).
T1 construct: Cryopreserved Peripheral Blood Mononuclear Cells (PBMC) are from AllCells; host or cells: cryopreserved PBMC
The assay can be described thus: MSD-pSTAT-PBMC Assay (pSTAT3, IL-6 stimulated). Format: cell-based. As to conditions: compound 3 hrs, then 10 ng/mL IL-6 for 10 min. Summed up:
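Human PBMCs were pretreated with compound for 3 h, then stimulated with 10 ng/mL IL-6 for 10 min. Lysate pY705-STAT3 was measured by MSD sandwich immunoassay (anti-STAT3 capture) and corrected for unstimulated background. Signal was normalized to DMSO, and IC50 came from variable-slope regression.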

For the next assay, the target named is T2, pY641-STAT6 in PBMC (Homo sapiens, UniProt P42226).
T2 construct: Cryopreserved Peripheral Blood Mononuclear Cells (PBMC) are from AllCells; host or cells: cryopreserved PBMC
T2 sequence (P42226 1-847): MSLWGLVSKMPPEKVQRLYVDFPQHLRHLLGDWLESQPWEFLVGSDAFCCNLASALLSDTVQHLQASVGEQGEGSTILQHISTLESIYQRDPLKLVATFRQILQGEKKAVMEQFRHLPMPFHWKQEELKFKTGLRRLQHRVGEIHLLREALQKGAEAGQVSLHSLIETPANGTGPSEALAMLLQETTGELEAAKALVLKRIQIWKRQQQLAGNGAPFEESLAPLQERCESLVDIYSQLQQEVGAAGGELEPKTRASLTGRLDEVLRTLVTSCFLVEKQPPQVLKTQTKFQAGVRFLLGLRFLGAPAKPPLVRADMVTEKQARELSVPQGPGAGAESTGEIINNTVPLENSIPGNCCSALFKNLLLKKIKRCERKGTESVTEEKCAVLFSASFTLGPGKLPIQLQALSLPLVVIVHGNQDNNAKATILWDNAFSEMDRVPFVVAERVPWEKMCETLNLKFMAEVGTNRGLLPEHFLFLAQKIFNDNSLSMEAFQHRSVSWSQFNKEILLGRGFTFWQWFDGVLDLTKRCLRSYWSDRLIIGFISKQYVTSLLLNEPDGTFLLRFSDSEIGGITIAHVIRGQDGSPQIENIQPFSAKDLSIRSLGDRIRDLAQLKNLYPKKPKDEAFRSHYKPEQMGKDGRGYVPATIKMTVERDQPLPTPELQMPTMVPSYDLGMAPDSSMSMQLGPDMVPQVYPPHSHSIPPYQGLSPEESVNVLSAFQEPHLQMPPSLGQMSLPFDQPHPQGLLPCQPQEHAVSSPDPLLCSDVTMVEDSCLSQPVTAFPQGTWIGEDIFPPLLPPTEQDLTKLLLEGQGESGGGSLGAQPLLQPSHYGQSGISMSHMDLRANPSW
The assay can be described thus: MSD-pSTAT-PBMC Assay (pSTAT6, IL-4 stimulated). Format: cell-based. To be noted: compound 3 hrs, then 1 ng/mL IL-4 for 10 min. Summed up: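 Cells are preincubated with compound for 3 hrs, then stimulated for 10 min, IL-4 at 1 ng/mL driving STAT6 phosphorylation and IL-6 at 10 ng/mL driving STAT3. Phospho-STAT in lysates is quantified by MSD immunoassay, and IC50 is fitted after subtracting unstimulated wells.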

Setting [1] is: PBMC, Table 1114, read-out: pSTAT3.
Setting [2] is: PBMC, Table 1114, read-out: pSTAT6.
Where [3] appears, read: PBMC, Table 115, read-out: STAT3.
Setting [4] is: PBMC, Table 115, read-out: STAT6.

T1 sequence (P40763 whole entry): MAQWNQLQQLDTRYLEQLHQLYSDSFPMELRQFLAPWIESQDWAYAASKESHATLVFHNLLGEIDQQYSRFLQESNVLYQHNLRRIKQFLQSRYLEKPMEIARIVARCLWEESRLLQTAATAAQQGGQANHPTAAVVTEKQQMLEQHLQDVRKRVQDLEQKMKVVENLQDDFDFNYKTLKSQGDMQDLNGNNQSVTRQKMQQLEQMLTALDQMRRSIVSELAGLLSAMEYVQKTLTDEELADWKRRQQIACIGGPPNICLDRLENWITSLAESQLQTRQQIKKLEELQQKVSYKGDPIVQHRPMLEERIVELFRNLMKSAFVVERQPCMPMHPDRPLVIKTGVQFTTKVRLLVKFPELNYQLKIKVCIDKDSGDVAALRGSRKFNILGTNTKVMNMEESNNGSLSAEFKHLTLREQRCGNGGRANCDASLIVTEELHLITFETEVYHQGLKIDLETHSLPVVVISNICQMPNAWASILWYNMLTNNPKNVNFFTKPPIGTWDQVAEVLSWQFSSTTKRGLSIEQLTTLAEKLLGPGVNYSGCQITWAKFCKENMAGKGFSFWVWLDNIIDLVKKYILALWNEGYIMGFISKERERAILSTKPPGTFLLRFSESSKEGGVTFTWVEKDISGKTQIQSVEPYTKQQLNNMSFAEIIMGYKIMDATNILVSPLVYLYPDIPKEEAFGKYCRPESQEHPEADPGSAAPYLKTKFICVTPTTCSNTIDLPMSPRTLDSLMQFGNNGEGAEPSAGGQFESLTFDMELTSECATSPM

As for `CCCC(=O)SCCOP(=O)(Oc1ccccc1)C(F)(F)c1ccc2sc(C(=O)N[C@H]3CCCC[C@H]4CC[C@@H](C(=O)N5C[C@H](c6ccccc6)[C@@H](C#N)C5)N4C3=O)cc2c1` (single isomer, unassigned) [Compound 128, S-(2-((((2-(((3S,6S,10aS)-3-((3R,4S or 3S,4R)-3-cyano-4-phenylpyrrolidine-1-carbonyl)-5-oxodecahydro-pyrrolo[1,2-a]azocin-6-yl)carbamoyl)benzo[b]thiophen-5-yl)difluoromethyl) (phenoxy)phosphoryl)oxy)ethyl) butanethioate], the IC50 was more than 3000 nM on pY705-STAT3 in PBMC (setting [1]) and 100 to 1000 nM on pY641-STAT6 in PBMC (pSTAT6, PBMC, Table 1114).
For the molecule `CC(C)CC(=O)SCCOP(=O)(OCCSC(=O)CC(C)C)C(F)(F)c1ccc2ccc(C(=O)N[C@H]3CCCC[C@H]4CC[C@@H](C(=O)N5C[C@H](c6cc[nH]c(=O)c6)[C@@H](C#N)C5)N4C3=O)cc2c1` (single isomer, unassigned) [Compound 155, S,S′-(((((7-(((3S,6S,10aS)-3-((3R,4S or 3S,4R)-3-cyano-4-(2-oxo-1,2-dihydropyridin-4-yl)pyrrolidine-1-carbonyl)-5-oxodecahydro-pyrrolo[1,2-a]azocin-6-yl)carbamoyl)naphthalen-2-yl)difluoromethyl)phosphoryl)bis(oxy))bis(ethane-2,1-diyl)) bis(3-methylbutane thioate)], the IC50 at pY705-STAT3 in PBMC (setting [1]) was 100 to 1000 nM; at pY641-STAT6 in PBMC (setting [2]), less than 100 nM.
For the molecule `CC(C)CC(=O)SCCOP(=O)(OCCSC(=O)CC(C)C)C(F)(F)c1ccc2ccc(C(=O)N[C@H]3CCCC[C@H]4CC[C@@H](C(=O)N5CC(c6ccccc6)CC56CC6)N4C3=O)cc2c1` (stereo partly drawn) [Compound 1101, S,S′-((((difluoro(7-(((3S,6S,10aS)-5-oxo-3-(6-phenyl-4-azaspiro[2.4]heptane-4-carbonyl)decahydropyrrolo[1,2-a]azocin-6-yl)carbamoyl)naphthalen-2-yl)methyl)phosphoryl)bis(oxy))bis(ethane-2,1-diyl)) bis(3-methylbutanethioate)], the IC50 at pY705-STAT3 in PBMC (setting [3]) is more than 3000 nM; at pY641-STAT6 in PBMC (setting [4]), less than 100 nM.
For the molecule `CCCOC(=O)[C@H](C)NP(=O)(Oc1ccccc1)[C@@H](F)c1ccc2sc(C(=O)N[C@H]3CCC[C@H]4CC[C@@H](C(=O)N5CC(c6cnccc6N(C)C)C5)N4C3=O)cc2c1` (stereo partly drawn) [Compound 942, propyl (((R)-(2-(((3S,6S, 9aS)-3-(3-(4-(dimethylamino)pyridin-3-yl)azetidine-1-carbonyl)-5-oxooctahydro-1H-pyrrolo[1,2-a]azepin-6-yl)carbamoyl)benzo [b]thiophen-5-yl)fluoromethyl) (phenoxy)phosphoryl)-L-alaninate], the IC50 at pY705-STAT3 in PBMC (setting [3]) is 100 to 1000 nM; against pY641-STAT6 in PBMC (STAT6, PBMC, Table 115) it was more than 3000 nM.
As to `CC(C)CC(=O)SCCOP(=O)(OCCSC(=O)CC(C)C)C(F)(F)c1ccc2sc(C(=O)N[C@H]3CCCCC4CC[C@@H](C(=O)N5C[C@H](c6ccccc6)[C@@H](C#N)C5)N4C3=O)cc2c1` (single isomer, unassigned) [Compound 163, S,S′-(((((2-(((3S,6S,10aS)-3-((3R,4S or 3S,4R)-3-cyano-4-phenylpyrrolidine-1-carbonyl)-5-oxodecahydro-pyrrolo[1,2-a]azocin-6-yl)carbamoyl)benzo[b]thiophen-5-yl)difluoromethyl)phosphoryl)bis(oxy))bis(ethane-2,1-diyl)) bis(3-methylbutane thioate)], the IC50 on pY705-STAT3 in PBMC (setting [1]) is more than 3000 nM; on pY641-STAT6 in PBMC (setting [2]) it was less than 100 nM.
Consider `CCCCOC(=O)[C@H](C)NP(=O)(Cc1ccc2ccc(C(=O)N[C@H]3CCCC[C@H]4CC[C@@H](C(=O)N5CC(c6ccccc6)CC56CC6)N4C3=O)cc2c1)Oc1ccccc1` (stereo partly drawn) [Compound 405, butyl (((7-(((3S,6S,10aS)-5-oxo-3-(6-phenyl-4-azaspiro[2.4]heptane-4-carbonyl)decahydropyrrolo[1,2-a]azocin-6-yl)carbamoyl)naphthalen-2-yl)methyl)(phenoxy)phosphoryl)-L-alaninate], for which the IC50 was more than 3000 nM on pY705-STAT3 in PBMC (setting [3]) and 1000 to 3000 nM on pY641-STAT6 in PBMC (STAT6, PBMC, Table 115).
On to `CC(C)OC(=O)OCOP(=O)(Cc1ccc2sc(C(=O)N[C@H]3CCCC[C@H]4CC[C@@H](C(=O)N5C[C@@H](C#N)[C@H](c6ccccc6)C5)N4C3=O)cc2c1)OCOC(=O)OC(C)C` (single isomer, unassigned) [Compound 148, ((((2-(((3S,6S,10aS)-3-((3S,4R or 3R,4S)-3-cyano-4-phenylpyrrolidine-1-carbonyl)-5-oxodecahydro-pyrrolo[1,2-a]azocin-6-yl)carbamoyl)benzo[b]thiophen-5-yl)methyl)phosphoryl)bis(oxy))bis(methylene) diisopropyl bis(carbonate)], for which the IC50 is more than 3000 nM on pY705-STAT3 in PBMC (setting [1]) and 100 to 1000 nM on pY641-STAT6 in PBMC (setting [2]).
For `CC(C)(C)C(=O)SCCOP(=O)(OCCSC(=O)C(C)(C)C)C(F)(F)c1ccc2sc(C(=O)N[C@H]3CCC[C@H]4CC[C@@H](C(=O)N5CC(c6ncccn6)C5)N4C3=O)cc2c1` [Compound 962, S,S′-((((difluoro(2-(((3S,6S,9aS)-5-oxo-3-(3-(pyrimidin-2-yl)azetidine-1-carbonyl)octahydro-1H-pyrrolo[1,2-a]azepin-6-yl)carbamoyl)benzo [b]thiophen-5-yl)methyl)phosphoryl)bis(oxy))bis(ethane-2,1-diyl))bis(2,2-dimethyl-propanethioate)], the IC50 was less than 100 nM at pY705-STAT3 in PBMC (setting [3]) and more than 3000 nM at pY641-STAT6 in PBMC (setting [4]).
For `CCCOC(=O)[C@H](C)NP(=O)(Oc1ccccc1)[C@H](F)c1ccc2sc(C(=O)N[C@H]3CCC[C@H]4CC[C@@H](C(=O)N5C[C@H](c6ccccc6)[C@@H](C#N)C56CC6)N4C3=O)cc2c1` (stereo partly drawn) [Compound 388, propyl (((S)-(2-(((3S,6S,9aS)-3-((6S,7R)-7-cyano-6-phenyl-4-azaspiro[2.4]heptane-4-carbonyl)-5-oxooctahydro-1H-pyrrolo[1,2-a]azepin-6-yl)carbamoyl)benzo [b]thiophen-5-yl)fluoromethyl) (phenoxy)phosphoryl)-L-alaninate], the IC50 at pY705-STAT3 in PBMC (STAT3, PBMC, Table 115) is more than 3000 nM; against pY641-STAT6 in PBMC (STAT6, PBMC, Table 115) it was less than 100 nM.
`CC(C)CC(=O)SCCOP(=O)(OCCSC(=O)CC(C)C)C(F)(F)c1ccc2ccc(C(=O)N[C@H]3CCCC[C@H]4CC[C@@H](C(=O)N5C[C@@H](C#N)[C@H](c6cc[nH]c(=O)c6)C5)N4C3=O)cc2c1` (single isomer, unassigned) [Compound 168, S,S′-(((((7-(((3S,6S,10aS)-3-((3S,4R or 3R,4S)-3-cyano-4-(2-oxo-1,2-dihydropyridin-4-yl)pyrrolidine-1-carbonyl)-5-oxodecahydropyrrolo [1,2-a]azocin-6-yl)carbamoyl)naphthalen-2-yl)difluoromethyl)phosphoryl)bis(oxy))bis(ethane-2,1-diyl)) bis(3-methylbutane thioate)]: the IC50 at pY705-STAT3 in PBMC (setting [1]) is 100 to 1000 nM; on pY641-STAT6 in PBMC (setting [2]) it was less than 100 nM.
With `CC(C)(C)C(=O)SCCOP(=O)(OCCSC(=O)C(C)(C)C)C(F)(F)c1ccc2sc(C(=O)N[C@H]3CCCC[C@H]4CC[C@@H](C(=O)N5CC(c6cccnc6)C5)N4C3=O)cc2c1` [Compound 181, S,S′-((((difluoro(2-(((3S,6S,10aS)-5-oxo-3-(3-(pyridin-3-yl)azetidine-1-carbonyl)decahydro-pyrrolo[1,2-a]azocin-6-yl)carbamoyl)benzo[b]thiophen-5-yl)methyl)phosphoryl)bis(oxy))bis(ethane-2,1-diyl)) bis(2,2-dimethylpropanethioate)], the IC50 on pY705-STAT3 in PBMC (setting [1]) is less than 100 nM; at pY641-STAT6 in PBMC (setting [2]) it was more than 3000 nM.
For the molecule `CCCOC(=O)[C@H](C)NP(=O)(Cc1ccc2ccc(C(=O)N[C@H]3CCCC[C@H]4CC[C@@H](C(=O)N5C[C@@H](c6cc[nH]c(=O)c6)CC56CC6)N4C3=O)cc2c1)Oc1ccccc1` (stereo partly drawn) [Compound 409, propyl (((7-(((3S,6S,10aS)-5-oxo-3-((R)-6-(2-oxo-1,2-dihydropyridin-4-yl)-4-azaspiro[2.4]heptane-4-carbonyl)decahydropyrrolo[1,2-a]azocin-6-yl)carbamoyl)naphthalen-2-yl)methyl)(phenoxy)phosphoryl)-L-alaninate], the IC50 is more than 3000 nM at pY705-STAT3 in PBMC (setting [3]) and 1000 to 3000 nM at pY641-STAT6 in PBMC (STAT6, PBMC, Table 115).
